Each block holds one compound with its values, some of them ahead of it.
Assays:
[1] = Plasma concentration in mouse xenografted with human HMC1 cells at 10 mg/kg, iv dosed at time 0 and again 24 hrs later and measured at 8 hrs after second dose by LC-MS/MS analysis; assay type: ADME, organism-based
[2] = Plasma concentration in mouse xenografted with human HMC1 cells at 10 mg/kg, iv dosed at time 0 and again 24 hrs later and measured at 24 hrs after second dose by LC-MS/MS analysis; assay type: ADME, organism-based
[3] = Drug concentration in tumor of mouse xenografted with human HMC1 cells at 10 mg/kg, iv dosed at time 0 and again 24 hrs later and measured at 8 hrs after second dose by LC-MS/MS analysis; assay type: ADME, organism-based, Neoplasm; conditions: read-out: Drug uptake
[4] = Plasma concentration in mouse xenografted with human HMC1 cells at 10 mg/kg, iv dosed at time 0 and again 24 hrs later and measured at 2 hrs after second dose by LC-MS/MS analysis; assay type: ADME, organism-based
[5] = Plasma concentration in mouse xenografted with human HMC1 cells at 10 mg/kg, iv dosed at time 0 and again 24 hrs later and measured at 0 hrs after second dose by LC-MS/MS analysis; assay type: ADME, organism-based
[6] = Drug concentration in tumor of mouse xenografted with human HMC1 cells at 10 mg/kg, iv dosed at time 0 and again 24 hrs later and measured at 48 hrs after second dose by LC-MS/MS analysis; assay type: ADME, organism-based, Neoplasm; conditions: read-out: Drug uptake
[7] = Drug concentration in tumor of mouse xenografted with human HMC1 cells at 10 mg/kg, iv dosed at time 0 and again 24 hrs later and measured at 0 hrs after second dose by LC-MS/MS analysis; assay type: ADME, organism-based, Neoplasm; conditions: read-out: Drug uptake
[8] = Drug concentration in tumor of mouse xenografted with human HMC1 cells at 10 mg/kg, iv dosed at time 0 and again 24 hrs later and measured at 2 hrs after second dose by LC-MS/MS analysis; assay type: ADME, organism-based, Neoplasm; conditions: read-out: Drug uptake
[9] = Drug concentration in tumor of mouse xenografted with human HMC1 cells at 10 mg/kg, iv dosed at time 0 and again 24 hrs later and measured at 24 hrs after second dose by LC-MS/MS analysis; assay type: ADME, organism-based, Neoplasm; conditions: read-out: Drug uptake
[10] = species on record: Homo sapiens; assay: Inhibition of human recombinant beta-tryptase assessed as remaining enzyme activity at 10 uM pre-incubated for 3 hrs before N-tert-butoxycarbonyl-Gln-Ala-Arg-AMC substrate addition and measured after 8 hrs by spectrometry relative to control
[11] = Inhibition of beta-tryptase in human HMC1 cells assessed as effect on A23187-induced degranulation; assay type: cell-based
[12] = Inhibition of beta-tryptase in human HMC1 cells assessed as effect on tryptase activity by measured cell lysis; assay type: cell-based
[13] = Stability in human liver microsomes assessed as parent compound remaining at 15 uM in presence of NADPH incubated for 60 mins; assay type: ADME, Microsome; conditions: liver microsomes, read-out: Stability
[14] = Stability in human liver microsomes assessed as parent compound remaining at 15 uM in absence of NADPH incubated for 60 mins; assay type: ADME, Microsome; conditions: liver microsomes, read-out: Stability
[15] = Stability in rat liver microsomes assessed as parent compound remaining at 15 uM in absence of NADPH incubated for 60 mins; assay type: ADME, Microsome; conditions: read-out: Stability
[16] = target: CYP2C9 (Homo sapiens, UniProt P11712); assay: Inhibition of CYP2C9 (unknown origin) at 10 uM relative to control; assay type: ADME
Chain of CYP2C9 (P11712 whole entry): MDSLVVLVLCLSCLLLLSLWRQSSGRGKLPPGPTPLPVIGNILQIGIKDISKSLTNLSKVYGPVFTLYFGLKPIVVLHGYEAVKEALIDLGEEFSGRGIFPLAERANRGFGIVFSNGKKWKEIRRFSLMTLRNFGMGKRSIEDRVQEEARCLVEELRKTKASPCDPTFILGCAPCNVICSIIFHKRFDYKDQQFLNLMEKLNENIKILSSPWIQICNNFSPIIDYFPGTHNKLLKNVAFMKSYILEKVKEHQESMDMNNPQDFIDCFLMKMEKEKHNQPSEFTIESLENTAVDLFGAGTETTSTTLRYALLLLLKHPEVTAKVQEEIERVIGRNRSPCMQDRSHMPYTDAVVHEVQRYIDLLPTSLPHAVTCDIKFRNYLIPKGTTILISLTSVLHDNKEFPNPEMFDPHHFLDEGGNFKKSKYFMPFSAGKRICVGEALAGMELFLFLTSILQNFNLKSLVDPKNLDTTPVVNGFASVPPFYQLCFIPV

[17] = Stability in mouse liver microsomes assessed as parent compound remaining at 15 uM in presence of NADPH incubated for 60 mins; assay type: ADME, Microsome; conditions: read-out: Stability
[18] = Dissociation constant, pKa of the compound (OH) by pH metric assay; assay type: physicochemical
[19] = Dissociation constant, pKa of the compound (OH) by UV metric assay; assay type: physicochemical
[20] = target: CYP2D6 (Homo sapiens, UniProt P10635); assay: Inhibition of CYP2D6 (unknown origin) at 10 uM relative to control; assay type: ADME
Chain of CYP2D6 (P10635 whole entry): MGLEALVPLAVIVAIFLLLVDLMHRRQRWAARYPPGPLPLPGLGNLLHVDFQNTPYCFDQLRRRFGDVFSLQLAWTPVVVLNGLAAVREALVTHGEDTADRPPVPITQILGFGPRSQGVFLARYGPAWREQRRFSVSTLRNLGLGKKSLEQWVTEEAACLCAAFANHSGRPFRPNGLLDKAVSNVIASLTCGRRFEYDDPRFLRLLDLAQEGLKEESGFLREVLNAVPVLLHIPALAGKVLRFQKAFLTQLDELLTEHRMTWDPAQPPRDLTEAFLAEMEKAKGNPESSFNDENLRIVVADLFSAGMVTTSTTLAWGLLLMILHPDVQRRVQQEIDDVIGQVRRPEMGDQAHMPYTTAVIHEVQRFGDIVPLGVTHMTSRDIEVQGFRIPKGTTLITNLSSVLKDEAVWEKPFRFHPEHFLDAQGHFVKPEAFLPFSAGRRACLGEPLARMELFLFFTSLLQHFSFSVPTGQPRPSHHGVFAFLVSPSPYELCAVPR

[21] = target: T1, CYP1A2 (Homo sapiens, UniProt P05177); assay: Inhibition of CYP1A2 (unknown origin) at 10 uM relative to control; assay type: ADME
T1 sequence (P05177 whole entry): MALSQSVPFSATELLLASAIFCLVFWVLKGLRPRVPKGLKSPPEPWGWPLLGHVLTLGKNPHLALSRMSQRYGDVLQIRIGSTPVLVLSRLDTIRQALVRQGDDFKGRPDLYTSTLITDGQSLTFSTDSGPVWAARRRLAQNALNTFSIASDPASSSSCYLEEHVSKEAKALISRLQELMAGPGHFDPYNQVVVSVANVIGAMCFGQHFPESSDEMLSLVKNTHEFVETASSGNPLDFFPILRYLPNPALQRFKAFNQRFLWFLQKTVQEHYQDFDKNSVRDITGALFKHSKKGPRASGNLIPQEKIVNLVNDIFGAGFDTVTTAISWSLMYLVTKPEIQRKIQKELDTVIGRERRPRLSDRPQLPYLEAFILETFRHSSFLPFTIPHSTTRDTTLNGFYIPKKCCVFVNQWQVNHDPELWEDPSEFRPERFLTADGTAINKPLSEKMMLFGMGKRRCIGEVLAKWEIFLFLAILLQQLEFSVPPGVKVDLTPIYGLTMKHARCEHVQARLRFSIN

[22] = Effective permeability from apical to basolateral side in PAMPA method; assay type: ADME; conditions: read-out: Peff
[23] = Effective permeability assessed as mass retention by PAMPA method; assay type: ADME
[24] = Stability in rat liver microsomes assessed as parent compound remaining at 15 uM in presence of NADPH incubated for 60 mins; assay type: ADME, Microsome; conditions: read-out: Stability
[25] = target: CYP2C19 (Homo sapiens, UniProt P33261); assay: Inhibition of CYP2C19 (unknown origin) at 10 uM relative to control; assay type: ADME
Chain of CYP2C19 (P33261 whole entry): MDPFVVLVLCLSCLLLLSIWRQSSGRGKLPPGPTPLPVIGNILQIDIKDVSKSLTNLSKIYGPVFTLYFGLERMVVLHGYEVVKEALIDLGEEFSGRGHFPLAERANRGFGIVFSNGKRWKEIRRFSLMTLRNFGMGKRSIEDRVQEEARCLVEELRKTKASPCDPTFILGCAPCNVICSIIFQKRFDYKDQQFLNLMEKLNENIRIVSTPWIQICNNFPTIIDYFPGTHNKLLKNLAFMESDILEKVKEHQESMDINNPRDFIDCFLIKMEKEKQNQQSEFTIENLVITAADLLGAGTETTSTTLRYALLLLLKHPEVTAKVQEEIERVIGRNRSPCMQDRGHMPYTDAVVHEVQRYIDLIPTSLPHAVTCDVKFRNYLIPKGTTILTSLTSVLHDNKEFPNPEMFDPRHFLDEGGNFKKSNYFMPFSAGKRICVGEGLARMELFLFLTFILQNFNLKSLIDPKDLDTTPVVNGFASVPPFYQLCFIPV

[26] = target: CYP3A4 (Homo sapiens, UniProt P08684); assay: Inhibition of CYP3A4 (unknown origin) at 10 uM relative to control; assay type: ADME
Chain of CYP3A4 (P08684 whole entry): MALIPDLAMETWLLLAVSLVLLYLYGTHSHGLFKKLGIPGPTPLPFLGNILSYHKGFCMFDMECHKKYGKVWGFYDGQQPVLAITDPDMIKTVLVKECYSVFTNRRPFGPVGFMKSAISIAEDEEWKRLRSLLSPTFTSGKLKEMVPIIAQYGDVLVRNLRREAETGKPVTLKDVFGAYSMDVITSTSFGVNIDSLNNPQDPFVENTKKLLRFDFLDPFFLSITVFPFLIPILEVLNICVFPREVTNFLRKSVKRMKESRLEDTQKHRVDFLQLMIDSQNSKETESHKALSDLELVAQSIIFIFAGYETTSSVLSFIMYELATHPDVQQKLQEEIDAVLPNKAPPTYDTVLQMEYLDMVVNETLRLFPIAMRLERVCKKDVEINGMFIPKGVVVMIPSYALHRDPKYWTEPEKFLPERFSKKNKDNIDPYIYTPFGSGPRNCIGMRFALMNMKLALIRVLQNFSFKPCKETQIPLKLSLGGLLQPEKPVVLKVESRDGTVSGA

[27] = Inhibition of human recombinant beta-tryptase pre-incubated for 3 hrs before N-tert-butoxycarbonyl-Gln-Ala-Arg-AMC substrate addition and measured every 30 secs for 15 mins by spectrometry
[28] = Dissociation constant, pKa of the compound (NH3*) by pH metric assay; assay type: physicochemical
[29] = Apparent permeability from apical to basolateral side in MDCK cells; assay type: ADME, cell-based, Canis lupus familiaris; conditions: dog
[30] = Stability in mouse liver microsomes assessed as parent compound remaining at 15 uM in absence of NADPH incubated for 60 mins; assay type: ADME, Microsome; conditions: read-out: Stability

- concentration at 8 h [1]: 43 nM
- concentration at 24 h [2]: 0.14 nM
- concentration at 8 h [3]: 107 nM
- concentration at 2 h [4]: 1290 nM
- concentration at 0 h [5]: 0.53 nM
- concentration at 48 h [6]: 0.56 nM
- concentration at 0 h [7]: 27.9 nM
- concentration at 2 h [8]: 554 nM
- concentration at 24 h [9]: 2.14 nM
SMILES: NCc1ccc2c(c1)C1(CCN(C(=O)c3cccc(-c4cccc(B(O)O)c4)c3)CC1)CO2.O=C(O)C(F)(F)F

- IC50 [11]: 0.24 µM
- IC50 [12]: 5.45 µM
SMILES: NCc1ccc2c(c1)C1(CCN(C(=O)c3cccc(-c4cccc(B5Oc6cc(C(=O)N7CCC8(CC7)COc7ccc(CN)cc78)cc(Cl)c6O5)c4)c3)CC1)CO2
- Activity [10]: 50%

- remaining at 1 h, 15 µM [13]: 8%
- remaining at 1 h, 15 µM [14]: 11%
- remaining at 1 h, 15 µM [15]: 73%
- inhibition at 10 µM [16]: 75%
- remaining at 1 h, 15 µM [17]: 18%
- pKa [18]: 8.11
- pKa [19]: 7.37
- inhibition at 10 µM [20]: 47%
- inhibition at 10 µM [21]: 18%
- Papp [22]: 0.01 ×10⁻⁶ cm/s
- Activity [23]: 26.3%
- remaining at 1 h, 15 µM [24]: 37%
- inhibition at 10 µM [25]: 77%
- inhibition at 10 µM [26]: 19%
- pKa [28]: 9.67
- Papp A→B [29]: 0.31 ×10⁻⁶ cm/s
- remaining at 1 h, 15 µM [30]: 36%
SMILES: NCc1cccc(C2CCN(C(=O)/C=C/c3ccc(O)c(O)c3)CC2)c1
- IC50 [27]: 3.84 µM
